Data: patent US9593305B2, “Differentiation of pluripotent stem cells” (Janssen Biotech, Inc., priority 2008, dated 2017)

Columns and labels:
[1] = tested on: H1 human embryonic stem cells; assay: Screen of CDK, GSK3 and TRK inhibitors with or without GDF-8, SOX17 and cell number (Example 20, Table 17); format: cell-based; details: Plate 1; for Cell Number, % of positive control / Sox17 Expression, % of positive control: positive control = Activin A/Wnt3a
Description: Briefly, clusters of H1 human embryonic stem cells were grown on reduced growth factor Matrigel™ (Invitrogen; Cat #356231) coated tissue culture plastic. Cells were passaged using collagenase (Invitrogen; Cat #17104-019) treatment and gentle scraping, washed to remove residual enzyme, and plated with even dispersal at a ratio of 1:1 (surface area) on reduced growth factor […]™ (BD Biosciences; Cat #356231)-coated 96-well black plates (Packard ViewPlates; PerkinElmer; Cat #6005182) using volumes of 100 μl/well. Cells were allowed to attach and then recover log phase growth over a 1 to 3 day time period, feeding daily with MEF conditioned medium supplemented with 8 ng/ml bFGF (R&D Systems; Cat #233-FB). Plates were maintained at 37° C., 5% CO2 in a humidified box throughout the duration of assay.
Screening was conducted using the compounds described in Table 16. […] Compounds were made available as 5 mM stocks in 96-well plate format, solubilized in 100% DMSO (Sigma; Cat #D2650) and stored at −80° C. The library compounds were further diluted to an intermediate concentration of 0.2 mM in 50 mM HEPES (Invitrogen; Cat #15630-080), 20% DMSO and stored at 4° C. Test conditions were performed in triplicate, feeding on alternating days over a four-day assay period. Assay was initiated by aspirating culture medium from each well followed by three washes in PBS (Invitrogen; Cat #14190) to remove residual growth factors. On the first day of assay, test volumes of 200 μl per well were added to each well using DMEM:F12 base medium (Invitrogen; Cat #11330-032) supplemented with 0.5% FCS (HyClone; Cat #SH30070.03) and 100 ng/ml GDF-8 (R&D Systems, Cat #788-G8) plus 2.5 μM compound. A parallel set of test samples were treated in an identical manner but omitting GDF-8 from the medium. On the third day of assay, test volumes of 100 μper well were added to each well using DMEM:F12 base medium supplemented with 2% FCS plus 100 ng/ml GDF-8 (R&D Systems, Cat #788-G8). […] Positive control samples contained the same base medium supplemented with FCS and 100 ng/ml recombinant human activin A (PeproTech; Cat #120-14) throughout the four day assay along with Wnt3a (20 ng/ml) addition on days 1 and 2. Negative control samples contained DMEM:F12 base medium supplemented with FCS.
At the conclusion of four-days of culture, assay plates were washed twice with PBS (Invitrogen; Cat #14190), fixed with 4% paraformaldehyde (Alexis Biochemical; Cat #ALX-350-011) at room temperature for 20 minutes, then washed three times with PBS and permeabilized with 0.5% Triton X-100 (Sigma; Cat #T8760-2) for 20 minutes at room temperature. Cells were washed again three times with PBS and blocked with 4% chicken serum (Invitrogen; Cat #16110082) in PBS for 30 minutes at room temperature. Primary antibody (goat anti-human SOX17; R&D Systems; Cat #AF1924) was diluted 1:100 in 4% chicken serum and added to each well for one hour at room temperature. Alexa Fluor 488 conjugated secondary antibody (chicken anti-goat IgG; Molecular Probes; Cat #AZ1467) was diluted 1:200 in PBS and added to each sample well after washing three times with PBS. To counterstain nuclei, 4 μg/ml Hoechst 33342 (Invitrogen; Cat #H3570) was added for ten minutes at room temperature. Plates were washed once with PBS and left in 100 μl/well PBS for imaging.
Imaging was performed using an IN Cell Analyzer 1000 (GE Healthcare) utilizing the 51008bs dichroic for cells stained with Hoechst 33342 and Alexa Fluor 488. Exposure times were optimized from positive control wells and from untreated negative control wells stained with secondary antibody alone. Images from 15 fields per well were acquired to compensate for any cell loss during the bioassay and subsequent staining procedures. Measurements for total cell number and total SOX17 intensity were obtained from each well using IN Cell Developer Toolbox 1.7 (GE Healthcare) software. […]

[2] = tested on: CDK, GSK3, and/or TRK signaling pathways; assay: Primary selectivity of the proprietary small molecules (Table 16); details: as listed in Table 17
Description: A subset of 14 proprietary small molecules, known to have specificity for the CDK, GSK3, and/or TRK signaling pathways were evaluated for their potential to differentiate human embryonic stem cells to cells expressing markers characteristic of the definitive endoderm lineage.

[3] = tested on: H1 human embryonic stem cells; assay: Definitive endoderm formation with GDF family members, SOX17 and cell number (Example 13); format: cell-based; details: for SOX17 expression, GDF growth factor substituting for activin A: 100 ng/ml GDF, alone or with Wnt3a, Compound 34 or Compound 56, four days
Description: Stock cultures of human embryonic stem cells (H1 human embryonic stem cell line) were maintained in an undifferentiated, pluripotent state on reduced growth factor […]™ (BD Biosciences; Cat #356231)-coated dishes in MEF conditioned medium with passage on average every four days. Passage was performed by exposing cell cultures to a solution of 1 mg/ml dispase (Invitrogen; Cat #17105-041) for 5 to 7 minutes at 37° C. followed by rinsing the monolayer with MEF conditioned culture medium and gentle scraping to recover cell clusters. Clusters were centrifuged at low speed to collect a cell pellet and remove residual dispase. Cell clusters were split at a 1:3 or 1:4 ratio for routine maintenance culture or a 1:1 ratio for immediate assay. All human ES cell lines were maintained at passage numbers less than 50 and routinely evaluated for normal karyotype and absence of mycoplasma.
Cell clusters were evenly resuspended in MEF conditioned medium supplemented with 8 ng/ml bFGF and seeded onto reduced growth factor […]™-coated 96-well Packard VIEWPLATES (PerkinElmer; Cat #6005182) in volumes of 0.1 ml/well. Daily feeding was conducted by aspirating spent culture medium from each well and replacing with an equal volume of fresh medium. Plates were maintained at 37° C., 5% CO2 throughout the duration of assay.
The assay was initiated by aspirating the culture medium from each well and adding back aliquots (100 μl) of test medium. Test conditions were performed in triplicate over a total four-day assay period, feeding on day 1 and day 3 by aspirating and replacing the medium from each well with fresh test medium. Various members of the GDF family of proteins were obtained for testing as follows: GDF-3 (PeproTech; Cat #120-22); GDF-5 (DePuy Orthopaedics, Inc., a Johnson & Johnson company); GDF-8 (R&D Systems; Cat #788-G8); GDF-10 (R&D Systems; Cat #1543-BP); GDF11 (PeproTech; Cat #120-11); GDF-15 (R&D Systems; Cat #957-GD). On the first day of assay, all wells received an aliquot (80 μl) of basal medium DMEM:F12 medium (Invitrogen; Cat #11330-032) supplemented with 0.5% fetal bovine serum (Hyclone; Cat #SH30070.03). A series of five different control or experimental test samples was created to evaluate activin A or various GDFs in combination with Wnt3a or Compound 34 or Compound 56. These test samples were added in 20 μl aliquots (5× concentrated) to appropriately matched assay wells to yield a final assay volume of 100 μl in each well at the final assay conditions indicated. In the first set of control samples, the following conditions were tested: 1) no additive (i.e. no supplementary growth factor or small molecule); 2) 100 ng/ml activin A (PeproTech; Cat #120-14) in combination with 20 ng/ml Wnt3a (R&D Systems; Cat #1324-WN/CF); 3) 20 ng/ml Wnt3a alone; 4) Compound 34 alone (2.5 μM) without any growth factor or small molecule; 5) Compound 56 alone (2.5 μM) without any growth factor or small molecule. In the second set of test samples, the following conditions were tested in combination with 100 ng/ml GDF3: 1) no additive (i.e. GDF-3 alone); 2) 20 ng/ml Wnt3a; 3) 20 ng/ml Wnt3a with Compound 34 (2.5 μM); 4) Compound 34 (2.5 μM); 5) Compound 56 (2.5 μM); and 6) 20 ng/ml Wnt3a with Compound 56 (2.5 μM). In the third set of test samples, each of the six conditions was combined with 100 ng/ml GDF-5. In the fourth set of test samples, each of the six conditions was combined with 100 ng/ml GDF-8. In the fifth set of test samples, each of the six conditions was combined with 100 ng/ml GDF-10. In the sixth set of test samples, each of the six conditions was combined with 100 ng/ml GDF-11. In the seventh set of test samples, each of the six conditions was combined with 100 ng/ml GDF-15. On the third day of assay, all wells for all test samples, received 100 ng/ml Activin A or 100 ng/ml respective GDF growth factor, without Wnt3a or Compound 34 or Compound 56, diluted into DMEM:F12 medium supplemented with 2% FBS. […]

[4] = compound in combination with GDF8

## O=C1NCc2cccc(c2)-c2ccnc(n2)Nc2ccc(C(=O)N3CCOCC3)c(c2)CN2CCC[C@@H]12 [Compound 44, (18S)-11-(Morpholin-4-ylcarbonyl)-5,7,14,20,28-pentaazapentacyclo[20.3.1.1˜2,6˜0.1˜8,12˜0.0˜14,18˜]octacosa-1(26), 2(28), 3,5,8(27), 9,11,22,24-nonaen-19-one]
[1]; compound alone, No GDF8
  Cell Number, Average Total Cell Number: 14
  Sox17 Expression, Average Total Intensity: −1.1E+06
  Cell Number, % of positive control: 0.1 % of positive control
  Sox17 Expression, % of positive control: −0.5 % of positive control
[1]; [4]
  Cell Number, Average Total Cell Number: 226
  Sox17 Expression, Average Total Intensity: −9.5E+05
  Cell Number, % of positive control: 1.6 % of positive control
  Sox17 Expression, % of positive control: −0.4 % of positive control
[2]
  Compound Selectivity: Selective for GSK

## COc1ccc2cc1OCCCC(=O)N(C)CC1CN(Cc3c[nH]c4ncnc(c34)N2)C1 [Compound 45, 10-Methoxy-17-methyl-2,14,15,17,18,19,20,22-octahydro-6H-1-19.21 methano-7,11-(metheno)-12-oxa-2,3,5,6,17,21-hexaazacycloicosa[1,2,3-cd]inden-16(13H)-one]
[1]; compound alone, No GDF8
  Cell Number, Average Total Cell Number: 8857
  Sox17 Expression, Average Total Intensity: −4.5E+05
  Cell Number, % of positive control: 61.2 % of positive control
  Sox17 Expression, % of positive control: −0.2 % of positive control
[1]; [4]
  Cell Number, Average Total Cell Number: 9540
  Sox17 Expression, Average Total Intensity: 1.1E+08
  Cell Number, % of positive control: 65.9 % of positive control
  Sox17 Expression, % of positive control: 47.9 % of positive control
[2]
  Compound Selectivity: Selective for Trk

## CN(C)CCNC(=O)c1ccc(-c2cnc3ccc(NCc4cccc(Cl)c4)nn23)cc1 [Compound 57, 4-(6-{[(3-Chlorophenyl)methyl]amino}imidazo[1,2-b]pyridazin-3-yl)-N-[2-(dimethylamino)ethyl]benzamide]
[1]; compound alone, No GDF8
  Cell Number, Average Total Cell Number: 1222
  Sox17 Expression, Average Total Intensity: −7.1E+05
  Cell Number, % of positive control: 8.4 % of positive control
  Sox17 Expression, % of positive control: −0.3 % of positive control
[1]; [4]
  Cell Number, Average Total Cell Number: 2110
  Sox17 Expression, Average Total Intensity: 1.1E+07
  Cell Number, % of positive control: 14.6 % of positive control
  Sox17 Expression, % of positive control: 4.8 % of positive control
[2]
  Compound Selectivity: Selective for Trk

B1: Wnt3a: Wnt3a recombinant protein (R&D Systems) (protein, UniProt P56704 19-352, looked up)
Protein Wnt-3a: SYPIWWSLAVGPQYSSLGSQPILCASIPGLVPKQLRFCRNYVEIMPSVAEGIKIGIQECQHQFRGRRWNCTTVHDSLAIFGPVLDKATRESAFVHAIASAGVAFAVTRSCAEGTAAICGCSSRHQGSPGKGWKWGGCSEDIEFGGMVSREFADARENRPDARSAMNRHNNEAGRQAIASHMHLKCKCHGLSGSCEVKTCWWSQPDFRAIGDFLKDKYDSASEMVVEKHRESRGWVETLRPRYTYFKVPTERDLVYYEASPNFCEPNPETGSFGTRDRTCNVSSHGIDGCDLLCCGRGHNARAERRREKCRCVFHWCCYVSCQECTRVYDVHTCK
[3]; 20 ng/ml Wnt3a or 2.5 μM compound alone, four days
  SOX17 expression, reagent alone: failed to induce SOX17 expression

B2: GDF-5: member of the GDF family of proteins (DePuy Orthopaedics) (protein, UniProt P43026 382-501, looked up)
Growth/differentiation factor …: APLATRQGKRPSKNLKARCSRKALHVNFKDMGWDDWIIAPLEYEAFHCEGLCEFPLRSHLEPTNHAVIQTLMNSMDPESTPPTCCVPTRLSPISILFIDSANNVVYKQYEDMVVESCGCR
[3]
  SOX17 expression, GDF growth factor substituting for activin A: induced weak expression of SOX17

B3: GDF-3: member of the GDF family of proteins (PeproTech) (protein, UniProt Q9NR23 251-364, looked up)
Growth/differentiation factor …: AAIPVPKLSCKNLCHRHQLFINFRDLGWHKWIIAPKGFMANYCHGECPFSLTISLNSSNYAFMQALMHAVDPEIPQAVCIPTKLSPISMLYQDNNDNVILRHYEDMVVDECGCG
[3]
  SOX17 expression, GDF growth factor substituting for activin A: induced weak expression of SOX17
